The test addresses SARS2 coronavirus 3CL protease (Severe acute respiratory syndrome coronavirus 2, UniProt P0DTD1). Kind of test: biochemical. The note with it: 5 nM enzyme, 30 min pre-incubation with compound, 15 μM peptide substrate, 4 h at room temperature; read-out: FRET Potency (nM); IC50 values in the SARS2 3CLPro FRET assay.
For `CNC(=O)C(=O)[C@H](C[C@@H]1C[C@@H](C)NC1=O)NC(=O)c1cc(Cl)ccc1NC(=O)C(C)C(F)(F)F` (stereo partly drawn) [Example 19, 5-chloro-N-[(1S)-3-(methylamino)-1-[[(3S,5R)-5-methyl-2-oxo-pyrrolidin-3-yl]methyl]-2,3-dioxo-propyl]-2-[(3,3,3-trifluoro-2-methyl-propanoyl)amino]benzamide], the IC50 was 28.2 nM.
Turning to `C[C@@H]1C[C@@H](C[C@H](NC(=O)c2cc(OC(F)F)ccc2NC(=O)c2cccc(C(F)(F)F)c2)C(=O)C(=O)NC2CC2)C(=O)N1` [Example 20, N-[(1S)-3-(cyclopropylamino)-1-[[(3S,5R)-5-methyl-2-oxo-pyrrolidin-3-yl]methyl]-2,3-dioxo-propyl]-5-(difluoromethoxy)-2-[[3-(trifluoromethyl)benzoyl]amino]benzamide], the IC50 stood at 26.4 nM.
As for `CNC(=O)C(=O)[C@H](C[C@@H]1C[C@@H](C)NC1=O)NC(=O)c1cc(Cl)ccc1NC(=O)C1CC(F)(F)C1` [Example 21, 5-chloro-2-[(3,3-difluorocyclobutanecarbonyl)amino]-N-[(1S)-3-(methylamino)-1-[[(3S,5R)-5-methyl-2-oxo-pyrrolidin-3-yl]methyl]-2,3-dioxo-propyl]benzamide], the IC50 amounted to 24.9 nM.
As to `C[C@@H]1C[C@@H](C[C@H](NC(=O)c2cc(Cl)cnc2NC(=O)C2(C(F)(F)F)CC2)C(=O)C(=O)NC2CC2)C(=O)N1` [Example 22, 5-chloro-N-[(1S)-3-(cyclopropylamino)-1-[[(3S,5R)-5-methyl-2-oxo-pyrrolidin-3-yl]methyl]-2,3-dioxo-propyl]-2-[[1-(trifluoromethyl)cyclopropane-carbonyl]amino]pyridine-3-carboxamide], the IC50 amounted to 22.6 nM.
Regarding `C[C@@H]1C[C@@H](C[C@H](NC(=O)c2cc(F)cnc2NC(=O)C2CC(F)(F)C2)C(=O)C(=O)NC2CC2)C(=O)N1` [Example 23, N-[(1S)-3-(cyclopropylamino)-1-[[(3S,5R)-5-methyl-2-oxo-pyrrolidin-3-yl]methyl]-2,3-dioxo-propyl]-2-[(3,3-difluorocyclobutanecarbonyl)amino]-5-fluoro-pyridine-3-carboxamide], the IC50 came to 20.6 nM.
As to `CNC(=O)C(=O)[C@H](C[C@@H]1C[C@@H](C)NC1=O)NC(=O)c1cc(Cl)ccc1NC(=O)C(C)C(F)(F)F` (stereo partly drawn) [Example 24, 5-chloro-N-[(1S)-3-(methylamino)-1-[[(3S,5R)-5-methyl-2-oxo-pyrrolidin-3-yl]methyl]-2,3-dioxo-propyl]-2-[(3,3,3-trifluoro-2-methyl-propanoyl)amino]benzamide], the IC50 amounted to 18.6 nM.
The same measure for `C[C@@H]1C[C@@H](C[C@H](NC(=O)c2cc(F)ccc2NC(=O)C2(C(F)(F)F)CC2)C(=O)C(=O)NC2CC2)C(=O)N1` [Example 25, N-[(1S)-3-(cyclopropylamino)-1-[[(3S,5R)-5-methyl-2-oxo-pyrrolidin-3-yl]methyl]-2,3-dioxo-propyl]-5-fluoro-2-[[1-(trifluoromethyl)cyclopropane-carbonyl]amino]benzamide]: 18.1 nM.
Consider `CNC(=O)C(=O)[C@H](C[C@@H]1C[C@@H](C)NC1=O)NC(=O)c1cc(Cl)ccc1NC(=O)c1cccc(C(F)(F)F)n1` [Example 26, N-[4-chloro-2-[[(1S)-3-(methylamino)-1-[[(3S,5R)-5-methyl-2-oxo-pyrrolidin-3-yl]methyl]-2,3-dioxo-propyl]carbamoyl]phenyl]-6-(trifluoromethyl)pyridine-2-carboxamide], for which the IC50 was found to be 17.4 nM.
On to `C[C@@H]1C[C@@H](C[C@H](NC(=O)c2cc(Cl)cnc2NC(=O)C23CC(F)(C2)C3)C(=O)C(=O)NC2CC2)C(=O)N1` [Example 27, 5-chloro-N-[(1S)-3-(cyclopropylamino)-1-[[(3S,5R)-5-methyl-2-oxo-pyrrolidin-3-yl]methyl]-2,3-dioxo-propyl]-2-[(3-fluorobicyclo[1.1.1]pentane-1-carbonyl)amino]pyridine-3-carboxamide], for which the IC50 was found to be 13.6 nM.

These data come from patent US20240228535A1 (priority 2022, published 2024).
